Experimental findings from US10081615B2, “Sulfamate derivative compounds for use in treating or alleviating pain” (Bio-Pharm Solutions Co., Ltd., priority 2013, dated 2018) are described below.

Series [1] has as its system hot plate withdrawal latency. The series is described as follows: Hot-plate test. In kind it is in vivo, ICR mice. To be noted: mouse, oral. The method, then:
To examine the pain relief effect of the sulfamate derivative compounds, a hot-plate test was conducted referring to Current Protocols in Neuroscience; Behavioral Neuroscience Unit 8.9.
ICR mice (male, 30-35 g; Orient Bio, Korea) were habituated before the test in the test room for 1 hour. Animals were fasted 2 hr before administration of the compounds. […] All compounds were dissolved in a vehicle of 30% (v/v) PEG 400 or 20% (v/v) Tween 80. The control group was treated with vehicle without treatment compounds.
0.5 hr after the administration of compounds, the mice were put on a hot plate pre-heated to 55±1° C. (Hu, X. et al, 2008), and then, the withdrawal latency was measured (cut-off time: 30 sec) until the point when each mouse was taking a paw off from the plate, shaking, licking a paw or hind leg, or jumping from the plate.
(In general: In hot-plate and tail-flick tests a longer latency is read as antinociception.)

The test system of series [2] is Post operation-induced pain model. Nature of the series: Antiallodynic activity on post operative pain-induced pain model (von Frey). The series is classed as in vivo, Sprague-Dawley rats. To be noted: 0.5 h; for ED50: ip. Here is the method: Male Sprague-Dawley rats (Orient Bio, Korea), 300-320 g, total of 201 rats were used (details in Table 7). Rats were habituated at least 3 days before surgery and free access to food and water (room temperature and humidity were maintained at […] and 50±10%, respectively). The process of performing the post-operation model's surgery was adapted from Brennan et al (1996). At first, rats with allodynia (threshold valueless than 8 g) were excluded in Pre-von Frey Test. During the post-operation surgery, rats were anesthetized under gaseous anesthesia with 2% isoflurane. Rats were laid face down on a plate fixed at 37° C. to prevent against hypothermia. The ipsilateral plantar aspect (left side) of the hind paw was prepared in a sterile manner with a 10% povidone-iodine solution. A longitudinal incision (1 cm) (FIG. 2-A) was made with a blade (number 11) through the skin and fascia of the ipsilateral plantar aspect of the foot, starting from 0.5 cm below the proximal edge of the heel and extending toward the toes. Rats' plantar muscles were elevated and incised longitudinally (FIG. 2-B). After hemostasis with gentle pressure, the skin was opposed with 2 mattress sutures (4-0 Dafilon) (FIG. 2-C). The wound site was covered with a 10% povidone-iodine solution gauze and injected with antibiotics (gentamicin, 8 mg/kg, ip). The sutures were removed under halothane anesthesia approximately 30 hours later, at the end of post-operative day 1.
After 2-3 days of recovery, rats with a good response (threshold less than 4 g) in Pre-von Frey Test were selected. According to this response, we made three groups with each group having equal average responses: Group 1, post-operation and drug treated; Group 2, post-operation and vehicle treated; Group 3, no post-operation and vehicle treated. In this study, Group 3 was the sham control (positive) group. The group 2 was used to check for possible failures to generate post-operative pain.
For efficacy measure, the threshold value of group C was assigned 100% efficacy, and the percentage of the threshold values of group A compared to group C (for each different dose level) were calculated as the efficacies. Base on these efficacy values, ED50 was calculated using log fitting. If there was no clear ED50, then we marked the percent efficacy at the highest tested dose or larger than highest tested dose.
For pain threshold test, all animals were placed in a stainless steel meshed chamber and habituated for 30 min in the test box. The tactile sensitivity of the ipsilateral hind paw was measured using the up-and-down method (Dixon, 1980) with seven von Frey monofilaments (0.4, 1, 2, 4, 6, 8, and 15 g) using 3 trials. The 50% paw withdrawal threshold for each paw was calculated using the following formula: [Xth] log=[vFr] log+ky, where [vFr] is the force of the last von Frey filament used, k=0.2249 which is the average interval (in log units) between the von Frey monofilaments, y which is a value that depends upon the pattern of withdrawal responses, and Xth which is the threshold value (Dixon, 1980).
Drugs were dissolved 30% PEG400 for example 60, 0.9% saline for Pregabalin, 20% Tween80 for Tylenol, 0.9% saline for Topiramate. These vehicles were selected depending on the compound's solubility. Intraperitoneal injection (5 μl/g) was done for all drugs.
The relative values compared to the sham (% control) were calculated and shown in Table 8, which show an antiallodynic effect of the compound of examples on Post operation-induced pain model in rats.

Where [3] appears, read: Rattus norvegicus, read-out: Post Operation: ED50 mg/kg.

Like-named read-outs stand apart in the source and are kept apart here.

For orientation: melting point means the temperature, or range, at which the solid turns liquid.

`CC1(C)Oc2ccccc2[C@@H](COS(N)(=O)=O)O1` [Example 2, ((S)-2,2-dimethyl-4H-benzo[d][1,3]dioxin-4-yl)methyl sulfamate]: the ED50 in series [1] (0.5 h) was 170 mg/kg; in series [2] (rat, intraperitoneal, read-out: Post Operation: ED50), 14.9 mg/kg.

As to `CC1(C)Oc2ccccc2[C@H](COS([NH-])(=O)=O)O1.[Na+]` [Example 58, Sodium (R)-(((2,2-dimethyl-4H-benzo[d][1,3]dioxin-4-yl)methoxy)sulfonyl)amide Trihydrate], in series [2] (setting [3]), the ED50 came out at 19.4 mg/kg.

On to `CC1(C)Oc2ccccc2C(COS([NH-])(=O)=O)O1.[Na+]` (centres unmarked) [Example 60, Sodium (((2,2-dimethyl-4H-benzo[d][1,3]dioxin-4-yl)methoxy)sulfonyl)amide Trihydrate], for which, in series [1] (170 mg/kg administered, time not given), the “Hot plate test: effect (%) compared to control” value is reported as “(196.2%)”. In addition, the ED50 in series [2] (setting [3]) amounted to 18.9 mg/kg.

In turn, `[NH-]S(=O)(=O)OC[C@H]1OC2(CCCC2)Oc2ccccc21.[Na+]` [Example 65, Sodium (S)-(((4H-spiro[benzo[d][1,3]dioxine-2,1′-cyclopentan]-4-yl)methoxy)sulfonyl)amide] gave a melting point of 121.2 to 131.9 °C. In series [2] (setting [3]), the ED50 came out at 31.8 mg/kg.

`CC1(C)Oc2ccccc2[C@H](COS([NH-])(=O)=O)O1.[K+]` [Example 70, Potassium (R)-(((2,2-dimethyl-4H-benzo[d][1,3]dioxin-4-yl)methoxy)sulfonyl)amide]: the “Post Operation: effect (%) compared to control” value in series [2] (rat, intraperitoneal, 18.9 mg/kg administered) was “(22.0%, 0.5 h)”.
